Test results published in US20110195420A1, “ESTROGEN AND ANTI-ESTROGEN MARKER GENES” (Merck Patent Gesellschaft, priority 2009, published 2011).
“Also recorded” adds a separate entry of the source. Where two headings read alike, the source gives them in different places.

Columns and labels:
Ishikawa plus cells = experiment: Illumina global gene expression profiling in Ishikawa plus cells after 24 h EAC treatment (ANOVA, correlation, K-Means clustering); type: cell-based, human
Experimental: Cells were routinely maintained in DMEM/F12 with L-Glutamine and 15 mM Hepes supplemented with 10% (v/v) FBS, 1% (v/v) penicillin (10 kU/ml)-streptomycin (10 mg/ml) solution, 0.1% (v/v) Gentamicin (50 mg/ml) and 1 mM sodium pyruvate at 37° C. and 5% CO2 in culture flasks. 5×10^5 cells were seeded onto 6-well plates in phenol-red free DMEM/F12 with L-Glutamine and 15 mM Hepes containing 10% (v/v) dextran-coated charcoal treated FBS, sodium pyruvate and antibiotics.
All experiments were performed three times with cells of passages 3-25.
After a 24 h treatment period cells were rinsed with PBS (Gibco Invitrogen, Karlsruhe, Germany), harvested and total RNA was extracted using the RNeasy Mini Kit (QIAGEN, Hilden, Germany) as described by the manufacturer, including the QIAshredder spin column procedure and on-column RNase-free DNase digestion. RNA was eluted with 40 μl of RNA-Storage solution (Ambion, Darmstadt, Germany). RNA quality control and quantification was determined using a NanoDrop® spectrophotometer (Kisker, Steinfurt, Germany) and 2100 Agilent Bio-Analyzer (Agilent Technologies, Waldbronn, Germany). Only RNA with a quality ratio A260/A280 between 1.9 and 2.1 and no evidence of peak degradation (18s/28s) was used.
Gene expression analysis was executed using Illumina Sentrix® HumanRef-8 V2 BeadChip Arrays (Illumina Inc., San Diego, Calif., USA) allowing the analysis of ˜23,000 transcripts. […] Instead of column cleanup, the bead-based Agencourt® RNAcIean™ system (Beckman Coulter, Krefeld, Germany) was applied to purify cDNA and cRNA. cRNA quantity was measured spectrophotometrically (NanoDrop®) and the 2100 Agilent Bio-Analyzer was used for quality assessment.
Seven hundred fifty nanograms of amplified biotinylated cRNA were hybridized onto the Illumina Sentrix® BeadChip in a Hybridization Cartridge under humidified conditions for 20 h at 58° C. (Hybridization oven, Illumina Inc., San Diego, Calif., USA). The chips were then washed, stained for 10 minutes with 1 μg/ml streptavidin-conjugated Cy3 (Amersham Biosciences, Buckinghamshire, UK) and finally dried by centrifugation according to the protocol provided.
Data were uploaded into Genedata's Expressionist® Analyst software (Genedata AG, Basel, Switzerland) for data normalization and statistical analysis. Data were normalized using Lowess (Locally Weighted Linear Regression) to offset non-biological differences (systematic variation) between the samples and arrays. After normalization fold-regulations for each individual compound treatment were calculated. The global gene set was reduced by filtering any signal intensity<200 (background level) to reduce error rates of multiple testing during further analysis.
Thus, only genes with a p-value and BH-Q-value less than 0.01 were accepted as significant.
For selection of characteristic estrogenicity marker genes, ANOVA was applied to the tested EACs against the vehicle controls. Only genes having a p-value and BH-Q-value less than 0.01 were accepted as significant.

ERα = target: T1, ERα (Homo sapiens, UniProt P03372); settings: consensus ERE reporter; used as low dose level; read-out: compound concentration causing a half maximal activation of the reporter gene (EC50); cited from earlier work
T1 sequence (P03372 1-595): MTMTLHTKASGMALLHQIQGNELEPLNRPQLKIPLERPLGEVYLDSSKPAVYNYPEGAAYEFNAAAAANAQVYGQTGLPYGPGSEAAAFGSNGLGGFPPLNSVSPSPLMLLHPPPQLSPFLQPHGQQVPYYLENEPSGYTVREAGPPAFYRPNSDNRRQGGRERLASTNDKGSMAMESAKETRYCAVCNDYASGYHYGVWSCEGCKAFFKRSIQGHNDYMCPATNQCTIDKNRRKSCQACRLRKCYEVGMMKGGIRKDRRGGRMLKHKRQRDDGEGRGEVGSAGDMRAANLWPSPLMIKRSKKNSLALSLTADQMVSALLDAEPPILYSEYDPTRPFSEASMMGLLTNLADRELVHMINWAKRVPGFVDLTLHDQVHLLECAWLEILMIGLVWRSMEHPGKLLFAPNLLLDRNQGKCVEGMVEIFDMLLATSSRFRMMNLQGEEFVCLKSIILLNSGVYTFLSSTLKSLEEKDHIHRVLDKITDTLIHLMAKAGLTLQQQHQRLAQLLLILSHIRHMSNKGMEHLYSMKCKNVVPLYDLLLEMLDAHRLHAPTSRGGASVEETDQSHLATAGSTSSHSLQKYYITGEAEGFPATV

[1] = Pearson correlation on significantly regulated genes, 24 h, dose not specified
[2] = clusters 3 and 4, same direction as ICI, 24 h
[3] = K-Means clustering, p-value/BH-Q-value<0.01, 24 h
[4] = Pearson correlation, 24 h, high dose
[5] = Pearson correlation, 24 h, low dose

CC(C)(c1ccc(O)cc1)c1ccc(O)cc1 [BPA, Bisphenol A]
share of ER-dependent regulated genes (clusters 1 and 2) also regulated in the same direction after DES treatment (Ishikawa plus cells; 24 h): Eighty
correlation of gene expression compared with DES (Ishikawa plus cells; [1]): low positive correlation
correlation of gene expression to ICI (Ishikawa plus cells; [1]): high positive correlation; also recorded: high correlations; also recorded: good correlation
anti-estrogen-like gene regulation, share of significantly regulated genes (Ishikawa plus cells; [2]): 86%

Clc1ccc(C(c2ccccc2Cl)C(Cl)(Cl)Cl)cc1 (stereo not drawn) [DDT, o,p′-Dichlordiphenyltrichlorethane]
anti-estrogen-like gene regulation, share of significantly regulated genes (Ishikawa plus cells): 85%
correlation of gene expression compared with DES (Ishikawa plus cells): low positive correlation
correlation of gene expression to ICI (Ishikawa plus cells): high positive correlation; also recorded: high correlations; also recorded: good correlation
share of ER-dependent regulated genes (clusters 1 and 2) also regulated in the same direction after DES treatment (Ishikawa plus cells): 72%

CC/C(=C(/CC)c1ccc(O)cc1)c1ccc(O)cc1 [DES, Diethylstilbestrol]
kind of regulated genes identified by K-Means clustering (Ishikawa plus cells; 24 h, dose not specified): only genes with ER-dependent expression profiles; also recorded: Only genes with ER-dependent regulation profiles
number of down-regulated genes with ER-dependent expression profiles (Ishikawa plus cells; [3]): 62
number of up-regulated genes with ER-dependent expression profiles (Ishikawa plus cells; [3]): 193
correlation of gene expression to ICI (Ishikawa plus cells; [1]): negatively correlated

O=c1c(-c2ccc(O)cc2)coc2cc(O)cc(O)c12 [GEN, Genistein]
doses at which anti-estrogenic gene regulation was displayed (Ishikawa plus cells; 24 h): only at low doses
share of ER-dependent regulated genes (clusters 1 and 2) also regulated in the same direction after DES treatment (Ishikawa plus cells; 24 h): Approximately 66%
correlation of gene expression to ICI (Ishikawa plus cells; [1]): good correlation
correlation of gene expression compared with DES (Ishikawa plus cells; [4]): medium to high correlations
similarity of gene expression with ICI (Ishikawa plus cells; [4]): little similarity
correlation of gene expression compared with DES (Ishikawa plus cells; [5]): low positive correlation
correlation of gene expression to ICI (Ishikawa plus cells; [5]): high positive correlation; also recorded: high correlations
kind of regulated genes identified by K-Means clustering (Ishikawa plus cells; high dose, 24 h): only ER-dependent regulated genes were identified; also recorded: Only genes with ER-dependent regulation profiles
share of low dose deregulated genes similarly regulated by ICI (clusters 5 and 6) (Ishikawa plus cells; low dose, 24 h): approximately 86%

C[C@]12CC[C@@H]3c4ccc(O)cc4C[C@@H](CCCCCCCCC[S+]([O-])CCCC(F)(F)C(F)(F)F)[C@H]3[C@@H]1CC[C@@H]2O (stereo partly drawn) [ICI, ICI 182,780]
regulation of the 87 marker genes (Ishikawa plus cells; ICI 100 nM alone and ICI/compound combination, 24 h): Most genes showed a weaker regulation score or were diametrically regulated

Oc1ccc(C=Cc2cc(O)cc(O)c2)cc1 [RESV, Resveratrol]
EC50 (ERα): 7.5 µM
estrogen-like gene expression, share of significantly regulated genes (Ishikawa plus cells; 24 h): 48%
portion of the putative estrogenic marker genes regulated unidirectional to ICI (Ishikawa plus cells; 24 h): one third
share of ER-dependent regulated genes (clusters 1 and 2) also regulated in the same direction after DES treatment (Ishikawa plus cells; 24 h): 6%
correlation of gene expression compared with DES (Ishikawa plus cells; [1]): no correlation
correlation of gene expression to ICI (Ishikawa plus cells; [1]): high positive correlation
anti-estrogen-like gene regulation, share of significantly regulated genes (Ishikawa plus cells; [2]): 52%

C[C@H]1CCCC(=O)CCC/C=C/c2cc(O)cc(O)c2C(=O)O1 [ZEA, Zearalenone]
EC50 (ERα): 0.0025 µM
doses at which anti-estrogenic gene regulation was displayed (Ishikawa plus cells; 24 h): only at low doses
share of ER-dependent regulated genes (clusters 1 and 2) also regulated in the same direction after DES treatment (Ishikawa plus cells; 24 h): Approximately 66%
correlation of gene expression to ICI (Ishikawa plus cells; [1]): good correlation
correlation of gene expression compared with DES (Ishikawa plus cells; [4]): medium to high correlations
similarity of gene expression with ICI (Ishikawa plus cells; [4]): little similarity
correlation of gene expression compared with DES (Ishikawa plus cells; [5]): low positive correlation
correlation of gene expression to ICI (Ishikawa plus cells; [5]): high positive correlation; also recorded: high correlations
kind of regulated genes identified by K-Means clustering (Ishikawa plus cells; high dose, 24 h): only ER-dependent regulated genes were identified; also recorded: Only genes with ER-dependent regulation profiles
share of low dose deregulated genes similarly regulated by ICI (clusters 5 and 6) (Ishikawa plus cells; low dose, 24 h): ~91%
